Test results from patent US9624211B2, “Anti-cancer compounds” (Board of Regents, The University of Texas System, priority 2013, dated 2017).
Entries after “also recorded” stand apart in the source; their conditions may differ. Like-named read-outs stand apart in the source and are kept apart here.

Legend:
[1] = system: Skp2 Trp97Ala and Asp98Ala mutants binding to Skp1; assay: In vitro Skp2-Skp1 binding assay with Skp2 mutants; conditions: FIG. 2D
Protocol: For in vitro GST-Skp1 and Skp2 interaction, GST-Skp1 proteins purified from the bacterial lysates of BL21 competent cells transformed with pGEX-4X1-Skp1 using the Glutathione-Agarose beads according to the manufacturer's standard procedures. The GST-Skp1 proteins bound to glutathione Sepharose beads (Amersham Biosciences) were then incubated with the in vitro translated [35^S]-Skp2 for 2 hours at 4° C. in the interaction buffer with or without compound #25 (20 mM HEPES, PH 7.9, 150 mM KCl. 5 mM EDTA, 0.5 mM DTT, 0.1% (v/v) Nonidet p-40, 0.1% (w/v) BSA, 1 mM PMSF, and 10% Glycerol), washed by the NETN buffer (20 mM Tris, pH 8.0, 100 mM NaCl, 6 mM MgCl2, 1 mM EDTA, 0.5% Nonidet P-40, 1 mM DTT, 8% glycerol, 1 mM PMSF) 4 times, and subjected to 8% SDS-PAGE, followed by autoradiography.

Skp2 SCF E3 ligase = molecular target: T1, Skp2 SCF E3 ligase (Homo sapiens, UniProt Q13309); assay: In vivo p27 ubiquitination assay in 293T cells; type: cell-based; conditions: WT Skp2
T1 construct: expressed in transfected cells; host or cells: 293T
T1 sequence (Q13309 whole entry): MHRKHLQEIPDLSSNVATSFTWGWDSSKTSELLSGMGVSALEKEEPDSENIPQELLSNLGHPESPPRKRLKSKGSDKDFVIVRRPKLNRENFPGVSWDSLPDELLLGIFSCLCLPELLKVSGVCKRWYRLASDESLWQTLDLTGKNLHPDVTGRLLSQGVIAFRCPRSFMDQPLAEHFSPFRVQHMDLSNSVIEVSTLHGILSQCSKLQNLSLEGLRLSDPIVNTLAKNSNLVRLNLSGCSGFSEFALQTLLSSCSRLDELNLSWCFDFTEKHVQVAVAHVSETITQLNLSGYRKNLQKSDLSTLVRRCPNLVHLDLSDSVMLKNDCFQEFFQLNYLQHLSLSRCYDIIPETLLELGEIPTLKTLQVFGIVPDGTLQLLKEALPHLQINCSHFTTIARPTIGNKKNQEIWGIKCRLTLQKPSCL
Protocol: (§1) In vivo and in vitro ubiquitination assays were performed as described with modification (Lin et al., 2009; Yang et al., 2009). For in vitro ubiquitination assay, recombinant GST-Akt proteins were expressed, purified and eluted from the bacterial lysates of BL21 competent cells. Flag-Skp2 SCF complex were expressed in 293T cells, immunoprecipitated by anti-Flag antibody, and eluted from Protein A/G beads using Flag peptides according to manufacturers' standard procedures. Purified GST-Akt and Flag-SCF proteins were incubated for 3 h at 37° C. in the absence and presence of Skp2 inhibitor. After incubation, protein mixtures were diluted in E1A Buffer and the supernatant fluid was precleared with Protein A/G beads for 1 h, and immunoprecipitated overnight with anti-Flag antibody, after which Protein A/G beads were added for an additional 1 h. Beads were washed 4 times with E1A Buffer. Proteins were eluted in SDS-sample buffer and subjected to immunoblotting analysis. For in vivo ubiquitination assay, 293T cells were transfected with the indicated plasmids and cultured in the absence or presence of Skp2 inhibitor for 48 h. 6 h before harvest, cells were cultured in the presence of MG132. After cell harvest, cells were lysed by the denatured buffer (6M guanidine-HCl, 0.1M Na2HPO4/NaH2PO4, 10 mM imidazole). […]

[2] = system: Skp2 Trp97Ala and Asp98Ala mutants; assay: In vivo p27 ubiquitination assay, Skp2 Trp97Ala and Asp98Ala mutants; type: cell-based
Protocol: as §1

Skp2 Trp127Ala mutant = molecular target: T2, Skp2 Trp127Ala mutant (Homo sapiens, UniProt Q13309, W127A); assay: In vivo p27 ubiquitination assay, Skp2 Trp127Ala mutant; type: cell-based
T2 construct: expressed in transfected cells; host or cells: 293T
T2 sequence (Q13309 whole entry W127A): as the sequence (Q13309 whole entry) above, with W127A counted along it
Protocol: as §1

[3] = system: p27 and p21 protein expression; assay: Immunoblotting of SCF substrates in prostate cancer cells; type: cell-based
Source text: (§2) Cells were lysed with RIPA buffer in the presence of protease inhibitor cocktail (Roche). The following antibodies were used for immunoblotting analysis: anti-Skp2 (Invitrogen), anti-Xpress (Invitrogen), anti-p27 (BD transduction laboratories), anti-p21 (Santa Cruz), anti-β-actin (Sigma), anti-α-tubulin (Sigma), anti-phospho-Akt (Thr308) (Cell Signaling), anti-phospho-Akt (Ser473) (Cell Signaling), and anti-HA (Convance). For immunohistochemistry, tissues were fixed in 10% formalin and embedded in paraffin in accordance with standard procedures. Sections were stained with anti-Skp2 (Invitrogen), anti-p27 (Epitomics), anti-phosphoAkt (SerS473) (Cell signaling), anti-Glut1 (Abcam), and anti-Ki67 (Abcam). TUNEL staining was performed by using in situ cell death detection kit-POD (Roche).

Skp2 protein expression = assay: Skp2 protein expression, immunoblotting; type: cell-based; conditions: higher dosage (20 μM)
Source text: as §2

FBW7 = molecular target: T3, FBW7 (Homo sapiens, UniProt Q969H0); assay: In vivo ubiquitination assay, FBW7 substrates; type: cell-based; conditions: in the presence of proteasome inhibitor
T3 construct: expressed in transfected cells; host or cells: 293T
T3 sequence (Q969H0 whole entry, species assumed): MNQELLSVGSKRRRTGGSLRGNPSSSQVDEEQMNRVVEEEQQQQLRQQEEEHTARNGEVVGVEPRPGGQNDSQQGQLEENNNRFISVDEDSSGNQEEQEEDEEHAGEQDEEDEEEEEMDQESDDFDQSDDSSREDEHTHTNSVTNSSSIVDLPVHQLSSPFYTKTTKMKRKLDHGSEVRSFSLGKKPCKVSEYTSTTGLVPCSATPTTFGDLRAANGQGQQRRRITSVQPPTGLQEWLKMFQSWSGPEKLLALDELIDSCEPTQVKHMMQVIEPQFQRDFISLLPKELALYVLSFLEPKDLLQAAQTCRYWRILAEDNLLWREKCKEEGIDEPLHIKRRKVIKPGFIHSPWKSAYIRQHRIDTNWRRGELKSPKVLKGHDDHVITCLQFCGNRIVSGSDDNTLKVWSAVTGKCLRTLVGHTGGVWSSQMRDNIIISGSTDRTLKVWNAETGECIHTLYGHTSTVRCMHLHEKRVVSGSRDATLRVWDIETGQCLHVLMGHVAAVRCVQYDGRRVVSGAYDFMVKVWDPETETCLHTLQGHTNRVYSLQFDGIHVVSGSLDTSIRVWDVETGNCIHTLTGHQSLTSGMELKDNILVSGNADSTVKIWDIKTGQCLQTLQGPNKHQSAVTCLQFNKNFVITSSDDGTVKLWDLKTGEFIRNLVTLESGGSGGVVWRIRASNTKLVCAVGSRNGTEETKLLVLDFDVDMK
Protocol: as §1

[4] = system: tumorigenic lung cancer cells; assay: Cell survival assay, lung cancer cells and normal fibroblasts; type: cell-based
Protocol: (§3) For Skp2 inhibitor administration, 5-10×10^3 of cells with were seeded in 12 wells in triplicate, 24 h later, treated with compound #25 (refreshed every two days). Four days later, cells were harvested, stained with trypan blue, and viable cells were counted directly under the microscope using hemocytometer. For doxorubicin treatment, 8×10^3 of PC3 cells with were seeded in 12 wells in triplicate, 24 h later, treated with various dose of compound #25 in the presence or absence of 10 nM doxorubicin or 25 ng/ml cyclophosphamide for four and three days, respectively (refreshed every two days). After treatment, cells were harvested, stained with trypan blue, and viable cells were counted directly under the microscope using hemocytometer. Cellular senescence was determined by assessing SA-b-gal activity using senescence detection kit according to manufacturers' standard procedures (Calbiochem).

Hep3B (liver) = assay: Cell survival assay, Hep3B; type: cell-based, human
Protocol: as §3

[5] = system: p53-deficient prostate cancer cells; assay: Cell senescence assay (SA-b-gal); type: cell-based
Protocol: as §3

prostate cancer cells = assay: Cell survival assay in combination with Dox or CPA; type: cell-based; conditions: combination with doxorubicin or cyclophosphamide
Protocol: as §3

PC3 xenograft tumors = assay: PC3 tumor xenograft in nude mice; type: in vivo
Protocol: Nude mice bearing PC3 or A549 xenograft tumors (around 100 mm^3) were administrated with vehicle or 80 mg/kg compound #25 on a daily basis. Tumor size was measured weekly with a caliper, and tumor volume was determined with the standard formula: L×W2×0.52, where L is the longest diameter and W the shortest diameter.

[6] = Pharmacokinetic analysis, plasma and tumor distribution; type: in vivo, nude mice
Protocol: FIGS. 14A-C. Skp2 inhibitor restricts cancer cell proliferation and triggers apoptosis in prostate tumor xenografts. The quantification results (FIG. 14A) and representative images (FIG. 14B) of histological analysis of Ki-67, TUNEL, Skp2 and HE staining in PC3-driven tumor xenografts. “Low” indicates tumor xenografts treated with 40 mg/kg, while “high” indicates the xenografts treated with 80 mg/kg of compound #25. Scale bar indicates 100 μm. (FIG. 14C) Pharmacokinetic analysis of compound #25. Plasma and tumor distribution following IP injection of compound #25 to nude mice bearing PC3-driven tumor xenograft are analyzed. Three mice were evaluated at each time point. Results are represented as mean values±S.D.

CCc1cc2c(=O)c(-c3nc4ccccc4s3)coc2c(CN2CCCCC2)c1O [compound #25, 3-(1,3-benzothiazol-2-yl)-6-ethyl-7-hydroxy-8-(1-piperidinylmethyl)-4H-chromen-4-one]
binding of Skp2 Trp97Ala and Asp98Ala mutants to Skp1 [1]: unable to inhibit | Skp2-mediated p27 ubiquitination (Skp2 SCF E3 ligase): inhibited Skp2-mediated p27 ubiquitination in a dose-dependent manner; also recorded: abrogated E3 ligase activity | E3 ligase activity of Skp2 Trp97Ala and Asp98Ala mutants [2]: failed to inhibit | E3 ligase activity of Skp2 Trp127Ala mutant (Skp2 Trp127Ala mutant): abrogated E3 ligase activity | stabilization/induction of SCF substrates ([3]; Skp2, Fbw7 and β-TrCP substrates, FIGS. 3E and 11A): selectively stabilized Skp2 substrates | endogenous p27 and p21 protein expression ([3]; prostate cancer cells): induced endogenous p27 and p21 protein expression | Skp2 protein expression (Skp2 protein expression): downregulated Skp2 protein expression | FBW7-mediated ubiquitination (c-Jun, MCL-1) (FBW7): no appreciable effect | cytotoxicity, lung cancer cells over lung fibroblast [4]: favorably triggered cytotoxicity in tumorigenic lung cancer cells over non-tumorigenic lung fibroblast | cell viability (Hep3B (liver)): potent suppressive effect on viability | cellular senescence [5]: triggered cellular senescence | sensitization to Dox and CPA (prostate cancer cells): increased the efficacy of Dox and CPA | prostate tumor growth in vivo (PC3 xenograft tumors; IP injection): potent effect | p27, p21, apoptosis, Akt activation and Glut1 in prostate tumor tissues (PC3 xenograft tumors; histological analysis): induced expression of p27 and p21, apoptosis, and suppressed Akt activation and Glut1 expression | time of maximum levels in blood ([6]; IP administration): 1 h | share of compound maintained in blood ([6]; for 6 h): up to 70% | concentration at 24 h ([6]; nude, mouse, blood, intraperitoneal, 24 h after administration, read-out: terminal concentration in blood): 126 ± 48 ng/mL | Cmax ([6]; nude, mouse, blood, IP administration): 1430 ± 1180 ng/mL | concentration at 24 h ([6]; nude, mouse, tumor, intraperitoneal, 24 h after initial administration, read-out: concentration remaining in tumor tissues): ~1160 ng/mL | concentration at 1 h ([6]; nude, mouse, tumor, intraperitoneal, within 1 h, read-out: concentration in tumors): 4790 ± 1970 ng/g
